In patent EP1932831A1, “1,2-Diarylacetylene Derivatives of Acyltryptophanols” (Bayer Schering Pharma Aktiengesellschaft, priority 2006, dated 2008) one finds IC50 data, which are given here for ten molecules.

Structures are written as SMILES.

The target in the assay is T1, human FSH receptor (Homo sapiens, UniProt P23945).
T1 construct: expressed in transfected cells; host or cells: CHO cells (hFSHR clone 16)
T1 sequence (P23945 18-695): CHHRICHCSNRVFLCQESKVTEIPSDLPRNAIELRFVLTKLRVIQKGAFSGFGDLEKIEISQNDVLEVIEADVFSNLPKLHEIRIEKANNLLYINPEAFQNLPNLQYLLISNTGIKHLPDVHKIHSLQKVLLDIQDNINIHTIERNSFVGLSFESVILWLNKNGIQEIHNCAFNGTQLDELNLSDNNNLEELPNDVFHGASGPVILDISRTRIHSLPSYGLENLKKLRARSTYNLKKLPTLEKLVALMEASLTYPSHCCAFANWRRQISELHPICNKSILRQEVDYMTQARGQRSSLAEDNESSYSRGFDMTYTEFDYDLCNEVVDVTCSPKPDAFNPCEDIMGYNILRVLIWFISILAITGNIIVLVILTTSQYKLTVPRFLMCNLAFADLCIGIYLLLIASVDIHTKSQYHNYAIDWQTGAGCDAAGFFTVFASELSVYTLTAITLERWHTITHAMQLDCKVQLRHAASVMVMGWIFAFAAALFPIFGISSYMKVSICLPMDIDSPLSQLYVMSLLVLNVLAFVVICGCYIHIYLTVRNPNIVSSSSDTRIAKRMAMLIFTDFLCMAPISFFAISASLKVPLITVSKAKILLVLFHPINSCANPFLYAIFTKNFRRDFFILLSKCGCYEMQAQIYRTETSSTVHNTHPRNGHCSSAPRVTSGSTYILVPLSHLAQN
Kind of assay: HTRF assay for measuring cAMP in cells (FSH antagonism). The note with it: FSH-antagonistic effect; hFSHR clone 16 cells (CHO cells stably transfected with the human FSH receptor); in the presence of 1e-9 mol/l hFSH; 37°C for 2h. It counts as cell-based. The protocol: The method is based on a competitive immunoassay between native cAMP, which has been produced by the cells, and cAMP which is labelled with cAMPD2 conjugate. The tracer binding was visualized by a monoclonal antibody, anti-cAMP labelled with cryptate [HTRF = homogeneous time-resolved fluorescence]. The specific signal is inversely proportional to the cAMP concentration of the samples employed. The 665nm/ 620nm fluorescence ratio was evaluated.
Materials used: 96-well plates for the tissue culture, 96-well plates with black edge and black base (e.g. Fluotrac 600 from Greiner), 96-well plates for the substance dilutions of polypropylene and cAMP Femtomolar (4000wells Kit, CIS Bio International # 62AM5PEJ). Reagent used: BSA (bovine serum albumin) Fraction V protease-free, IBMX (3-isobutyl-1-methylxanthine), hFSH (human follicle stimulating hormone), Triton X-100 analytical grade, potassium fluoride analytical grade, G 418 (Geneticin) and Accutase.
Buffer 1 (washing and testing buffer) contained PBS, 1 mM CaCl2, 1 mM MgCl2, 0.2% glucose; 0.1% BSA, 1 mM IBMX.
Buffer 2 (2x lysis buffer) contained 1% Triton X-100 in PBS (without CaCl2 and MgCl2).
Buffer 3 (assay buffer) contained 50 mM potassium phosphate buffer (pH 7.0); 800 mM potassium fluoride; 0.2% BSA (always added fresh).
On day 1, the cells were seeded in 96-well plates (3x10^4 cells per well hFSHR clone 16 cells (CHO cells stably transfected with the human FSH receptor in 150 µl of medium). The next day, test substance dilutions were made up. For this purpose, all the substances were diluted in ice-cold buffer 1 (with or without hFSH), and the substance dilutions were placed on ice until applied to the cells. The cell supernatant was then aspirated off, and the cells were washed 2x with 200 µl of buffer 1. The cells were treated with 60 µl of the appropriate substance concentrations at 37°C for 2h. The cells were then lysed with 60 µl of buffer 2 (put onto the supernatant) (on a plate shaker at RT for 30 min). The test conjugates (cAMP-D2 and anti-cAMP cryptate, CIS Bio) were diluted in buffer 3 in accordance with the manufacturers' information. The actual mixture for measurement was pipetted into a black 96-well plate (in each case 15 µl of the cell lysate diluted with 35 µl of buffer 1; firstly 25 µl of cAMP-D2 conjugate were pipetted and, after 10 min, 25 µl of the anti-cAMP cryptate were added). This is followed by incubation at RT for 90 minutes. The measurement was carried out in a PheraStar (BMG).
Dose-effect curve (hFSH) for the human receptor: 1 e-8, 3e-9, 1 e-9, 3e-10, 1e-10, 3e-11, 1 e-11, 3e-12 mol/I. The test substances were employed in suitable dilutions in the absence (test for agonism) and in the presence of 1e-9 mol/l hFSH.
The values of the well ratio were averaged and then entered directly in SigmaPlot versus the concentrations. The maximum and minimum values were determined for each plate, and half the difference is to be regarded as IC50. […] Table 1. FSH-antagonistic effect of selected compounds in the HTRF assay
Background: Time-resolved FRET reads energy transfer from a long-lived donor to a nearby acceptor.
In general, IC50 refers to the point on the concentration scale where inhibition reaches its midpoint. On to `COc1ccccc1C#Cc1ccc(OC(C)C)c(C(=O)NC(CO)Cc2c[nH]c3cc(F)c(F)cc23)c1` (racemic) [Example 23, N-[(RS)-2-(5,6-Difluoro-1H-indol-3-yl)-1-hydroxymethyl-ethyl]-2-isopropoxy-5-(2-methoxy-phenylethynyl)-benzamide], for which the half-maximal inhibitory concentration (IC50) came to 30 nM.
The value for `CCCOc1ccc(C#Cc2ccccc2)cc1C(=O)N[C@@H](CO)Cc1c[nH]c2ccccc12` [Example 1, N-[(R)-1-Hydroxymethyl-2-(1H-indol-3-yl)-ethyl]-5-phenylethynyl-2-propoxybenzamide] was 250 nM; that for `CCCOc1ccc(C#Cc2ccccc2OC)cc1C(=O)N[C@@H](CO)Cc1c[nH]c2ccccc12` [Example 2, N-[(R)-1-Hydroxymethyl-2-(1H-indol-3-yl)-ethyl]-5-(2-methoxyphenylethynyl)-2-propoxy-benzamide] was 70 nM.
Turning to `COc1ccccc1C#Cc1ccc(OC(C)C)c(C(=O)N[C@H](CO)Cc2c[nH]c3ccccc23)c1` [Example 4, N-[(S)-1-Hydroxymethyl-2-(1H-indol-3-yl)-ethyl]-2-isopropoxy-5-(2-methoxy-phenylethynyl)-benzamide], the concentration for half-maximal inhibition (IC50) stood at 7500 nM.
The value for `Cc1ccccc1C#Cc1ccc(OC(C)C)c(C(=O)N[C@@H](CO)Cc2c[nH]c3ccccc23)c1` [Example 5, N-[(R)-1-Hydroxymethyl-2-(1H-indol-3-yl)-ethyl]-2-isopropoxy-5-o-tolylethynyl-benzamide] was 80 nM.
For the molecule `COc1ccccc1C#Cc1cc(C(=O)N[C@@H](CO)Cc2c[nH]c3ccccc23)c2ccccc2c1` [Example 6, 3-(2-Methoxy-phenylethynyl)-naphthalene-1-carboxylic acid [(R)-1-hydroxymethyl-2-(1H-indol-3-yl)-ethyl]-amide], the half-maximal inhibitory concentration (IC50) was determined as 100 nM.
`COc1ccccc1C#Cc1ccc(OC(C)C)c(C(=O)N[C@H](Cc2c[nH]c3ccccc23)C(C)(C)O)c1` [Example 20, N-[(R)-2-Hydroxy-1-(1H-indol-3-ylmethyl)-2-methyl-propyl]-2-isopropoxy-5-(2-methoxy-phenylethynyl)-benzamide]: the half-maximal inhibitory concentration (IC50) is 700 nM.
Consider `CC(C)Oc1ccc(C#Cc2ccccc2)cc1C(=O)NC(CO)Cc1c[nH]c2ccc(F)cc12` (stereo not shown) [Example 21, N-[2-(5-Fluoro-1H-indol-3-yl)-1-hydroxymethyl-ethyl]-2-isopropoxy-5-phenylethynyl-benzamide], for which the IC50 turned out to be 300 nM.
Take `COc1ccccc1C#Cc1ccc(OC(C)C)c(C(=O)NC(CO)Cc2c[nH]c3ccc(F)cc23)c1` (stereo not shown) [Example 22, N-[2-(5-Fluoro-1H-indol-3-yl)-1-hydroxymethyl-ethyl]-2-isopropoxy-5-(2-methoxy-phenylethynyl)-benzamide]: the IC50 is 150 nM.
Then `CCn1cc(C[C@H](CO)NC(=O)c2cc(C#Cc3ccccc3OC)ccc2OC(C)C)c2ccccc21` [Example 24, N-[(R)-2-(1-Ethyl-1H-indol-3-yl)-1-hydroxymethyl-ethyl]-2-isopropoxy-5-(2-methoxy-phenylethynyl)-benzamide], with 20 nM.
